This is an account of results in PMC12501277, “The deubiquitylase OTUB1 drives gemcitabine resistance in pancreatic cancer by enhancing pyrimidine metabolism through modulating DHODH mRNA stability” (Cell Death & Disease, 2025).

The target of this test is T1, OTUB1 (Homo sapiens, UniProt Q96FW1).
T1 construct: Recombinant human OTUB1 protein (Abcam, ab157086)
Briefly: SPR (Biacore 8K, OTUB1 immobilized on CM5 chip). It is filed as binding. A general note: Surface plasmon resonance follows binding to a sensor surface in real time, without labels.

T1 sequence (Q96FW1 2-271): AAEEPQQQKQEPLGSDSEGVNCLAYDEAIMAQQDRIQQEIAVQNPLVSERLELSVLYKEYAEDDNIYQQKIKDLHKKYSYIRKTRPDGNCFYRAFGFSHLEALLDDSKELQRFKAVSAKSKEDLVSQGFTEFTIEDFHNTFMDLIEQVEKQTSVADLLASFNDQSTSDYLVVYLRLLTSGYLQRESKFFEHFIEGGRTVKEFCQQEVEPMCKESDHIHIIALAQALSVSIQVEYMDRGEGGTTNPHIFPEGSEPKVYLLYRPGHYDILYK

`COc1cc(NC(=O)CCN2CCC(OC(=O)Nc3ccccc3-c3ccccc3)CC2)c(Cl)cc1CNC[C@H](O)c1ccc(O)c2[nH]c(=O)ccc12` [Batefenterol]: the affinity, expressed as Kd, was 23.5 µM.
